What was measured:
Details in all cases: 72 h
U2OS [1] = assay: relative viability EC50 (midpoint between 100% and the lowest measured viability); higher = less toxic
HepG2 [2] = assay: as above
U2OS [3] = assay: drug sensitivity score (DSS) for viability; higher = more toxic; extreme values may be limits of the assay
HepG2 [4] = assay: as above
Calu-3 [5] = assay: as above
Vero E6 [6] = assay: as above
Caco-2 [7] = assay: as above
U2OS [8] = assay: cell viability relative to DMSO; higher = less toxic
HepG2 [9] = assay: as above
Calu-3 [10] = assay: as above
Vero E6 [11] = assay: as above
Caco-2 [12] = assay: as above
Vero E6 [13] = assay: relative viability EC50 (midpoint between 100% and the lowest measured viability); higher = less toxic
Caco-2 [14] = assay: as above
Calu-3 [15] = assay: as above

| SMILES | relative viability EC50 (U2OS [1]) | relative viability EC50 (HepG2 [2]) | drug sensitivity score (U2OS [3]) | drug sensitivity score (HepG2 [4]) | drug sensitivity score (Calu-3 [5]) | drug sensitivity score (Vero E6 [6]) | drug sensitivity score (Caco-2 [7]) | cell viability (U2OS [8]; 1 nM) | cell viability (U2OS [8]; 10 nM) | cell viability (U2OS [8]; 100 nM) | cell viability (U2OS [8]; 1000 nM) | cell viability (U2OS [8]; 10000 nM) | cell viability (HepG2 [9]; 1 nM) | cell viability (HepG2 [9]; 10 nM) | cell viability (HepG2 [9]; 100 nM) | cell viability (HepG2 [9]; 1000 nM) | cell viability (HepG2 [9]; 10000 nM) | cell viability (Calu-3 [10]; 1 nM) | cell viability (Calu-3 [10]; 10 nM) | cell viability (Calu-3 [10]; 100 nM) | cell viability (Calu-3 [10]; 1000 nM) | cell viability (Calu-3 [10]; 10000 nM) | cell viability (Vero E6 [11]; 1 nM) | cell viability (Vero E6 [11]; 10 nM) | cell viability (Vero E6 [11]; 100 nM) | cell viability (Vero E6 [11]; 1000 nM) | cell viability (Vero E6 [11]; 10000 nM) | cell viability (Caco-2 [12]; 1 nM) | cell viability (Caco-2 [12]; 10 nM) | cell viability (Caco-2 [12]; 100 nM) | cell viability (Caco-2 [12]; 1000 nM) | cell viability (Caco-2 [12]; 10000 nM) | relative viability EC50 (Vero E6 [13]) | relative viability EC50 (Caco-2 [14]) | relative viability EC50 (Calu-3 [15]) |
| --- | --- | --- | --- | --- | --- | --- | --- | --- | --- | --- | --- | --- | --- | --- | --- | --- | --- | --- | --- | --- | --- | --- | --- | --- | --- | --- | --- | --- | --- | --- | --- | --- | --- | --- | --- |
| COc1ccc(C(=O)N2CCCc3cc(C4=NNC(=O)SC4C)ccc32)cc1OC (stereo not given) | > 10 µM | > 10 µM | 0 | 0 | 2.9 | 3.5 | 3.2 | 96.2% | 104% | 103% | 96.8% | 90.2% | 83.4% | 80.2% | 95.9% | 90.1% | 81.2% | 97.5% | 93.4% | 101% | 87.7% | 70.1% | 103% | 100% | 102% | 83.7% | 67.7% | 95.4% | 94.2% | 89.8% | 83.7% | 71.5% |  |  |  |
| O=C1[C@H](Cc2ccc(O)cc2)N2C(=O)CCN(C(=O)NCc3ccccc3)[C@H]2CN1Cc1cccc2ccccc12 [ICG-001] |  | 3.6 µM |  | 2.7 | 2.4 | 0 | 2.7 |  |  |  |  |  | 102% | 105% | 110% | 105% | 43.5% | 97.4% | 106% | 97.1% | 100% | 53.1% | 90% | 99.2% | 91.3% | 97.2% | 106% | 91.5% | 94.2% | 99.7% | 91% | 68.8% | > 10 µM |  |  |
| CO[C@@]12[C@H](COC(N)=O)C3=C(C(=O)C(C)=C(N)C3=O)N1C[C@@H]1N[C@@H]12 [mitomycin-C] |  |  | 2.6 | 16.7 | 2.6 | 5.5 |  |  |  |  |  |  |  |  |  |  |  |  |  |  |  |  |  |  |  |  |  |  |  |  |  |  |  |  |  |
| Cc1sc2c(c1C)C(c1ccc(Cl)cc1)=N[C@@H](CC(=O)OC(C)(C)C)c1nnc(C)n1-2 [JQ1-(+)] |  |  | 9.2 | 10 | 6 | 17.3 |  |  |  |  |  |  |  |  |  |  |  |  |  |  |  |  |  |  |  |  |  |  |  |  |  |  |  |  |  |
| COc1cc2ncnc(Oc3cccc(NC(=O)Nc4cc(C(C)(C)C(F)(F)F)on4)c3)c2cc1OC |  |  |  | 3 |  | 0 | 0 |  |  |  |  |  | 114% | 93.9% | 110% | 93.7% | 59.8% |  |  |  |  |  | 100% | 97.1% | 108% | 108% | 88.3% | 102% | 94.1% | 97.5% | 93.2% | 93.8% | > 10 µM | > 10 µM |  |
| COc1cccc2c1c(O)c(C(=O)N(C)c1ccc(C(F)(F)F)cc1)c(=O)n2C [tasquinimod] |  | > 10 µM |  | 0 |  | 0 |  |  |  |  |  |  | 114% | 104% | 105% | 98.9% | 102% |  |  |  |  |  | 94.9% | 98.9% | 96.7% | 93% | 93.9% |  |  |  |  |  | > 10 µM |  |  |
| CCCCN(CCCC)CCCOC(=O)c1ccc(N)cc1 [butacaine] | > 10 µM | > 10 µM | 0 | 0 | 0 | 0 | 0.9 | 92.5% | 99.3% | 95.1% | 102% | 101% | 108% | 93% | 102% | 85.2% | 95.7% | 95.9% | 95.3% | 106% | 86.8% | 94.9% | 102% | 90.8% | 99.1% | 92.9% | 92.7% | 92.7% | 98.5% | 91.3% | 128% | 65.7% | > 10 µM |  | > 10 µM |
| COc1cc(/C=C2\CCCN([C@@H](C)c3ccc(F)cc3)C2=O)ccc1-n1cnc(C)c1 [E-2012] | > 10 µM |  | 0 | 2.1 | 0 | 0 | 1.3 | 103% | 97.7% | 101% | 104% | 97.4% | 109% | 97.5% | 100% | 99% | 60.1% | 102% | 99.2% | 106% | 104% | 114% | 93.1% | 104% | 98.7% | 98.8% | 106% | 106% | 101% | 94.9% | 98.8% | 72.6% | > 10 µM |  | > 10 µM |
| CCN(CC)CC#CCOC(=O)C(O)(c1ccccc1)C1CCCCC1 (stereo not given) [oxybutynin] |  |  | 0 | 0 | 0 | 0 |  |  |  |  |  |  |  |  |  |  |  |  |  |  |  |  |  |  |  |  |  |  |  |  |  |  |  |  |  |
| CNC(=O)[C@H]1O[C@@H](n2cnc3c(NCc4cccc(I)c4)nc(Cl)nc32)[C@H](O)[C@@H]1O [CF102] |  | > 10 µM |  | 0 | 0 | 0 |  |  |  |  |  |  | 100% | 102% | 108% | 106% | 99.3% | 99.1% | 116% | 93.2% | 102% | 98.3% | 110% | 99.5% | 104% | 98.3% | 102% |  |  |  |  |  | > 10 µM |  | > 10 µM |
| Cc1csc2c(N[C@@H](C)CN3CCN(S(=O)(=O)c4ccc(Cl)c(Cl)c4)CC3)ncnc12 [LPA2-antagonist-1] |  | 0.451 µM | 2.5 | 12.8 | 0 | 1.1 | 3.7 | 97.6% | 101% | 97.4% | 97% | 58.7% | 106% | 97.9% | 93.2% | 36.6% | 18.6% | 90.5% | 104% | 96.9% | 103% | 93.6% | 95.2% | 97.1% | 102% | 93.2% | 82.5% | 96.3% | 107% | 95.3% | 80.9% | 64.4% | > 10 µM |  | > 10 µM |

Reference: the supplement of paper PMC13380429
